Source: paper PMC8708382, “Heterocyclic Cathinones as Inhibitors of Kynurenine Aminotransferase II—Design, Synthesis, and Evaluation” (Pharmaceuticals, 2021)
Where a name gives a salt, the structure may show the parent alone. Read-outs that look alike come from different tables or passages of the source.

Experiments:
hKAT-II = target: T1, hKAT-II (Homo sapiens, UniProt Q8N5Z0); test: Coupled fluorescence in vitro inhibition assay of hKAT-II; assay type: biochemical; conditions: 20 nM hKAT-II; for IC50: 30 min pre-incubation; for Inhibitory Activity [%I ± SEM] c = 1 µM: 30 min pre-incubation with enzyme, mean ± SEM
T1 construct: hexahistidine tag (N); made in house; host or cells: E. coli BL21(DE3)-RIL
Protocol: The inhibitory activity of amino ketones 11 and 12 was evaluated using a fluorimetric in vitro assay. The activity was determined as the percentage of inhibition (%I) at a concentration of 1 µmol/L and also as IC50 values (Table 1). The observed inhibitory activity confirmed the validity of the computational model and was suitable to conduct a synthesis-directed SAR study around the predicted heterocyclic α-amino ketone structure.
The nucleotide sequence encoding hKAT-II gene was constructed by Invitrogen, Thermo Fisher Scientific. The hKAT-II gene, optimized for heterologous expression in E. coli, was cloned into a pET15b vector using NdeI-XhoI. The hKAT-II protein, carrying an N-terminal hexahistidine tag, was produced in E.coli BL21(DE3)-RIL cells for 4 h at 37 °C. The bacterial cells were then harvested and disintegrated using One-Shot. […] (25.000× g, 30 min) centrifugation cleared cell lysate containing hKAT-II was loaded on the top of a HisTrap Fast Flow column (Cytiva) equilibrated in loading buffer (40 mM Tris, pH 8; 1000 mM NaCl, 40 µM PLP, 5 mM MgCl2, 20 mM imidazole). Following elution of the bound proteins by the loading buffer containing 600 mM imidazole, purified hKAT-II was dialyzed into a storage buffer (20 mM Hepes pH 7.5; 50 mM NaCl, 70 µM PLP, 10% glycerol), concentrated to 1.0–1.5 mg/mL, aliquoted, and stored at −80 °C.
hKAT-II activity was measured using a fluorescence assay utilizing L-α-aminoadipic acid (AAD) and α-ketoglutarate as the substrates as previously described. The assay medium (100 µL) consisted of 0.75 µM of hKAT-II, 0.3 mM of AAD, 50 µM α-ketoglutarate, 3 mM NAD^+, 88 µg/mL of glutamic dehydrogenase, and 5 µM pyridoxal phosphate (PLP) in a 0.1 M phosphate buffer pH 7.5. The activity of the enzyme was assessed on a Spark multiple mode reader (Tecan Group Ltd., Männedorf, Switzerland) with an excitation wavelength of 340 nm and emission wavelength of 390 nm at 37 °C. The plate was shaken for 20 s before reading. The kinetic interval was set at 30 s between each reading, and data were collected for 30 min. The activity of the enzyme was assayed in pentaplicate in each measurement (n = 3). Kinetic data were then collected over a period of 30 min, and the linear part of the initial velocity was used to calculate the enzyme activity expressed as the slope of the linearized curve via the linear regression function (Excel, Microsoft, USA).
The inhibitory activity of the tested compounds was determined via 30 min pre-incubation with the enzyme at various concentrations of the inhibitor at room temperature in a 0.1 M phosphate buffer pH 7.5 with 5 µM PLP. The enzyme reaction was initiated by the addition of a substrate and cofactors. The final mixture contained 20 nM of hKAT-II, 0.3 mM of AAD, 50 µM α-ketoglutarate, 3 mM NAD^+, and 88 µg/mL of glutamic dehydrogenase. Kinetic data were collected over a period of 30 min, and the slope of the linearized curve was calculated as above. The inhibitory activity in %I at a given concentration was calculated for novel compounds using the following equation:(1) Inhibition [%I]=(V0− Vi/V0)×100, where V0 and Vi are the activity of the enzyme in the absence and presence of the inhibitor, respectively. All the data were obtained in pentaplicate for each measurement (n = 3). Alternatively, the IC50 values for selected novel compounds were assessed. GraphPad Prism 8 software (San Diego, USA) was used for the IC50 value calculation using non-linear regression (four parameters). […]

[1] = non-linear regression (four parameters), read-out: IC50 ± SEM

T1 sequence (Q8N5Z0 30-425): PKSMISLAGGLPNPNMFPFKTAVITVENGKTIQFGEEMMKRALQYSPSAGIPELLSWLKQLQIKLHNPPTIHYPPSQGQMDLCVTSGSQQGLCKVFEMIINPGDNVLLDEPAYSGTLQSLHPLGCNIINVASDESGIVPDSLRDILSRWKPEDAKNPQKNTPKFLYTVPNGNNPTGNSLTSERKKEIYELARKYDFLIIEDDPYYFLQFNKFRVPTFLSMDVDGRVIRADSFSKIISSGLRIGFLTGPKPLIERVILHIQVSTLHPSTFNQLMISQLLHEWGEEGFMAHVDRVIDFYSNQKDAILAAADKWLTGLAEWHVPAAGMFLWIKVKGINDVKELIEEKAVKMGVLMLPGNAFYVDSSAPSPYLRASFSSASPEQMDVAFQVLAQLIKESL

| Structure (SMILES) | melting point | IC50 (hKAT-II; assay validation, read-out: IC50 of the reference inhibitor) | IC50 (hKAT-II; [1]) | Inhibitory Activity [%I ± SEM] c = 1 µM (hKAT-II) |
| --- | --- | --- | --- | --- |
| C[C@H](N)C(=O)c1cn(-c2cccnc2)nn1 (as salt: hydrochloride) [Compound 26l] | 140 to 143 °C (dec.) |  |  |  |
| N[C@H]1Cc2ccccc2N(O)C1=O [Compound 3, PF-04859989, reference compound] |  | 28 ± 5 nM |  |  |
| C[C@H](N)C(=O)c1ncc(-c2ccccc2)s1 [Compound 11, 2-alaninoyl-5-phenylthiazole] | > 168 °C (dec.) |  | 1620 ± 1430 nM | 41.41 ± 4.15 %I |
| C[C@H](N)C(=O)c1cn(-c2ccccc2)nn1 [Compound 12, 4-alaninoyl-1-phenyl-1H-1,2,3-triazole] | > 178 °C (dec.) |  | 3210 ± 260 nM | 43.19 ± 2.30 %I |
| CC(C)[C@H](N)C(=O)c1cn(-c2ccccc2)nn1.Cl [Compound 21a] | > 182 °C (dec.) |  |  | 10.32 ± 4.81 %I |
| N[C@@H](Cc1ccccc1)C(=O)c1cn(-c2ccccc2)nn1 [Compound 21b] | > 174 °C (dec.) |  |  | 14.52 ± 3.71 %I |
| Cl.N[C@@H](CCc1ccccc1)C(=O)c1cn(-c2ccccc2)nn1 [Compound 21c] | > 175 °C (dec.) |  |  | 16.50 ± 3.71 %I |
| CCCC[C@H](N)C(=O)c1cn(-c2ccccc2)nn1.Cl [Compound 21d] | > 173 °C (dec.) |  |  | 13.46 ± 5.46 %I |
| CC[C@H](N)C(=O)c1cn(-c2ccccc2)nn1.Cl [Compound 21e] |  |  |  | 21.82 ± 4.80 %I |
| N[C@H](C(=O)c1cn(-c2ccccc2)nn1)C1CC1 [Compound 21f] | > 183 °C (dec.) |  |  | 7.44 ± 3.75 %I |
| CC(C)[C@H](N)C(=O)c1ncc(-c2ccccc2)s1 [Compound 25a] | > 170 °C (dec.) |  |  | 31.24 ± 3.64 %I |
| N[C@@H](Cc1ccccc1)C(=O)c1ncc(-c2ccccc2)s1 [Compound 25b] | > 175 °C (dec.) |  |  | 7.22 ± 2.70 %I |
| N[C@@H](CCc1ccccc1)C(=O)c1ncc(-c2ccccc2)s1 [Compound 25c] | > 135 °C (dec.) |  |  | 31.32 ± 0.88 %I |
| CCCC[C@H](N)C(=O)c1ncc(-c2ccccc2)s1 [Compound 25d] | 124 to 127 °C |  |  | 37.22 ± 2.53 %I |
| CC[C@H](N)C(=O)c1ncc(-c2ccccc2)s1 [Compound 25e] | > 180 °C (dec.) |  |  | 44.18 ± 3.42 %I |
| N[C@H](C(=O)c1ncc(-c2ccccc2)s1)C1CC1 [Compound 25f] | > 165 °C (dec.) |  |  | 6.12 ± 2.66 %I |
| COc1ccc(-n2cc(C(=O)[C@H](C)N)nn2)cc1 [Compound 26a] | > 180 °C (dec.) |  |  | 38.50 ± 2.21 %I |
| COc1cccc(-n2cc(C(=O)[C@H](C)N)nn2)c1 [Compound 26b] | > 171 °C (dec.) |  |  | 18.20 ± 2.27 %I |
| COc1ccccc1-n1cc(C(=O)[C@H](C)N)nn1 [Compound 26c] | > 168 °C (dec.) |  |  | 23.41 ± 3.97 %I |
| C[C@H](N)C(=O)c1cn(-c2ccc(C(C)(C)C)cc2)nn1 [Compound 26d] | > 181 °C (dec.) |  |  | 0.98 ± 1.98 %I |
| Cc1ccc(-n2cc(C(=O)[C@H](C)N)nn2)cc1 [Compound 26e] | > 184 °C (dec.) |  |  | 18.56 ± 2.33 %I |
| Cc1ccc(-n2cc(C(=O)[C@H](C)N)nn2)cc1C [Compound 26f] | > 170 °C (dec.) |  |  | 9.10 ± 2.07 %I |

| Structure (SMILES) | melting point | IC50 (hKAT-II; assay validation, read-out: IC50 of the reference inhibitor) | IC50 (hKAT-II; [1]) | Inhibitory Activity [%I ± SEM] c = 1 µM (hKAT-II) |
| --- | --- | --- | --- | --- |
| Cc1ccc(-n2cc(C(=O)[C@H](C)N)nn2)c(C)c1 [Compound 26g] | > 175 °C (dec.) |  |  | 41.60 ± 6.39 %I |
| Cc1cccc(C)c1-n1cc(C(=O)[C@H](C)N)nn1 [Compound 26h] | > 176 °C (dec.) |  |  | 25.38 ± 2.22 %I |
| C[C@H](N)C(=O)c1cn(-c2cccc3ccccc23)nn1 [Compound 26i] | > 172 °C (dec.) |  |  | 4.32 ± 1.32 %I |
| C[C@H](N)C(=O)c1cn(-c2ccc3ccccc3c2)nn1 [Compound 26j] | > 182 °C (dec.) |  |  | 27.81 ± 3.33 %I |
| C[C@H](N)C(=O)c1cn(-c2ccccn2)nn1.Cl [Compound 26k] | > 198 °C (dec.) |  |  | 20.73 ± 1.83 %I |
| C[C@H](N)C(=O)c1cn(-c2cccnc2)nn1 [Compound 26l] |  |  |  | 23.63 ± 2.30 %I |
| C[C@H](N)C(=O)c1cn(-c2ccncc2)nn1.Cl.Cl [Compound 26m] | > 183 °C (dec.) |  |  | 33.48 ± 4.88 %I |
| C[C@H](N)C(=O)c1cn(-c2ccc(F)cc2)nn1.Cl [Compound 26n] | > 183 °C (dec.) |  |  | 41.77 ± 3.01 %I |
| C[C@H](N)C(=O)c1cn(-c2ccc(C(F)(F)F)cc2)nn1 [Compound 26o] |  |  |  | 9.70 ± 1.67 %I |
| C[C@H](N)C(=O)c1cn(-c2cccc([N+](=O)[O-])c2)nn1.Cl [Compound 26p] | > 183 °C (dec.) |  |  | 41.43 ± 2.67 %I |
| C[C@H](N)C(=O)c1cn(-c2ccc([N+](=O)[O-])cc2)nn1.Cl [Compound 26q] | > 191 °C (dec.) |  |  | 41.73 ± 2.66 %I |
| C[C@H](N)C(=O)c1cn(-c2ccc(Cl)cc2)nn1.Cl [Compound 26r] | > 177 °C (dec.) |  |  | 23.86 ± 2.95 %I |
| C[C@H](N)C(=O)c1cn(-c2cccc(Cl)c2)nn1 [Compound 26s] | > 171 °C (dec.) |  |  | 20.63 ± 3.78 %I |
| C[C@H](N)C(=O)c1cn(-c2ccccc2Cl)nn1.Cl [Compound 26t] | 138 to 169 °C (dec.) |  |  | 35.52 ± 3.63 %I |
| C[C@H](N)C(=O)c1cn(-c2ccc(Cl)c(Cl)c2)nn1 [Compound 26u] | > 163 °C (dec.) |  |  | 19.33 ± 1.06 %I |
| C[C@H](N)C(=O)c1cn(-c2ccc(F)c(Cl)c2)nn1 [Compound 26v] |  |  |  | 23.62 ± 4.30 %I |
| C[C@H](N)C(=O)c1cn(Cc2ccccc2)nn1.Cl [Compound 28a] | > 182 °C (dec.) |  |  | 14.54 ± 3.19 %I |
| C[C@H](N)C(=O)c1cn(CCc2ccccc2)nn1.Cl [Compound 28b] | > 172 °C (dec.) |  |  | 11.84 ± 5.76 %I |
| C[C@H](N)C(=O)c1cn(-c2ccc(F)cc2Cl)nn1 [Compound 32a] | > 158 °C (dec.) |  |  | 25.30 ± 1.10 %I |
| CC[C@H](N)C(=O)c1cn(-c2ccc(F)cc2Cl)nn1 [Compound 32b] | > 196 °C (dec.) |  |  | 21.25 ± 0.67 %I |
| C[C@H](N)C(=O)c1ncc(-c2ccc(F)cc2)s1 [Compound 49a, 2-alaninoyl-5-(4-fluorophenyl)thiazole] |  |  | 97 ± 14 nM | 61.54 ± 7.16 %I |
